Experimental data taken from US11173151B2, “Substituted triazole derivatives and uses thereof” (BAYER AKTIENGESELLSCHAFT, priority 2017, dated 2021).

Legend:
[1] = molecular target: T1, human V1a receptor (Homo sapiens, UniProt P37288); assay: Cellular in vitro assay for determining vasopressin receptor activity, V1a receptor cell line (CHO, aequorin luminescence); assay type: cell-based; conditions: for IC50: CHO cell line transfected with human V1a receptor, [Arg]-vasopressin at EC50 concentration, read-out: IC50 hV1a; for ratio IC50 hV2/hV1a: selectivity ratio IC50 hV2 / IC50 hV1a
T1 construct: expressed in transfected cells; host or cells: CHO K1 (ATCC), also stably transfected with a modified aequorin
Method in brief: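 Cells were plated the day before in medium containing 5 μg/ml coelenterazine and kept at 37° C. Compounds at various concentrations were then added for 10 minutes. Next, [Arg]-vasopressin at EC50 was applied and light output recorded at once, yielding IC50.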

[2] = molecular target: T2, human V2 receptor (Homo sapiens, UniProt P30518); assay: Cellular in vitro assay for determining vasopressin receptor activity, V2 receptor cell line (CHO, CRE-luciferase); assay type: cell-based; conditions: CHO cell line transfected with human V2 receptor; [Arg8]-vasopressin at EC50 concentration, 3 hours; read-out: IC50 hV2
T2 construct: expressed in transfected cells; host or cells: CHO K1 (ATCC) expressing firefly luciferase under a CRE-responsive promoter
T2 sequence (P30518 whole entry): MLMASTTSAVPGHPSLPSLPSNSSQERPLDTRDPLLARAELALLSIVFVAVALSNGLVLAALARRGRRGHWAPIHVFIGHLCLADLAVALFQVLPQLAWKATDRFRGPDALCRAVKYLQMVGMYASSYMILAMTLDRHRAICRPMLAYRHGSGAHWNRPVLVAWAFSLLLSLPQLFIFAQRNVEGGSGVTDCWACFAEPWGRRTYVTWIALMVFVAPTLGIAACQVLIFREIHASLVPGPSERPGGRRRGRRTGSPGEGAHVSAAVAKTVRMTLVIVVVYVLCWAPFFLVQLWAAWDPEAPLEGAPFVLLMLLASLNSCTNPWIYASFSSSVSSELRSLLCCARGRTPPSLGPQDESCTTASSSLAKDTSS

T1 sequence (P37288 whole entry): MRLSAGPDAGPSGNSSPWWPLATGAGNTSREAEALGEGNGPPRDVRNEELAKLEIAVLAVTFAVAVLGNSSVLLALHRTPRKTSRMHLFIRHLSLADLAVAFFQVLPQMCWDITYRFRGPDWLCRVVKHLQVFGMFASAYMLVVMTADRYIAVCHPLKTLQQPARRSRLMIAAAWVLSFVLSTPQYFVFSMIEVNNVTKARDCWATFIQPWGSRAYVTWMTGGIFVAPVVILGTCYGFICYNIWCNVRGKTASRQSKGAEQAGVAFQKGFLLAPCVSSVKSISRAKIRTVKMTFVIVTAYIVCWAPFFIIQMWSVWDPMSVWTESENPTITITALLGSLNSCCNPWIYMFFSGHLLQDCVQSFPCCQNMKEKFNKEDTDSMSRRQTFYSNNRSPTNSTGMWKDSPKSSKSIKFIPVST

CC[C@@H](C)C(=O)Nc1ncccc1-n1cnc(Cn2nc(-c3ccc(Cl)cc3)n(C[C@H](O)C(F)(F)F)c2=O)n1 [Example 126]
IC50 [1]: 36 nM
ratio IC50 hV2/hV1a [1]: 6.9
IC50 [2]: 250 nM

Cc1ccn(CC(=O)Nc2ncccc2-n2cnc(Cn3nc(-c4ccc(Cl)cc4)n(C[C@H](O)C(F)(F)F)c3=O)n2)n1 [Example 127]
IC50 [1]: 160 nM
ratio IC50 hV2/hV1a [1]: 6.6
IC50 [2]: 1050 nM

Cc1nnsc1C(=O)Nc1ncccc1-n1cnc(Cn2nc(-c3ccc(Cl)cc3)n(C[C@H](O)C(F)(F)F)c2=O)n1 [Example 128]
IC50 [1]: 13.5 nM
ratio IC50 hV2/hV1a [1]: 111.1
IC50 [2]: 1500 nM

Cc1cc(C(=O)Nc2ncccc2-n2cnc(Cn3nc(-c4ccc(Cl)cc4)n(C[C@H](O)C(F)(F)F)c3=O)n2)nn1C [Example 129]
IC50 [1]: 670 nM
ratio IC50 hV2/hV1a [1]: 5.4
IC50 [2]: 3650 nM

Cc1[nH]ncc1C(=O)Nc1ncccc1-n1cnc(Cn2nc(-c3ccc(Cl)cc3)n(C[C@H](O)C(F)(F)F)c2=O)n1 [Example 130]
IC50 [1]: 189 nM
ratio IC50 hV2/hV1a [1]: 23.9
IC50 [2]: 4500 nM

CC(C(=O)Nc1ncccc1-n1cnc(Cn2nc(-c3ccc(Cl)cc3)n(C[C@H](O)C(F)(F)F)c2=O)n1)n1ccnc1 (stereo partly drawn) [Example 131]
IC50 [1]: 12.5 nM
ratio IC50 hV2/hV1a [1]: 156.0
IC50 [2]: 1950 nM

Cn1cncc1C(=O)Nc1ncccc1-n1cnc(Cn2nc(-c3ccc(Cl)cc3)n(C[C@H](O)C(F)(F)F)c2=O)n1 [Example 132]
IC50 [1]: 45.5 nM
ratio IC50 hV2/hV1a [1]: 113.2
IC50 [2]: 5150 nM

Cc1nonc1C(=O)Nc1ncccc1-n1cnc(Cn2nc(-c3ccc(Cl)cc3)n(C[C@H](O)C(F)(F)F)c2=O)n1 [Example 133]
IC50 [1]: 4.9 nM
ratio IC50 hV2/hV1a [1]: 295.9
IC50 [2]: 1450 nM

O=C(Nc1ncccc1-n1cnc(Cn2nc(-c3ccc(Cl)cc3)n(C[C@H](O)C(F)(F)F)c2=O)n1)C1CCOCC1 [Example 134]
IC50 [1]: 117 nM
ratio IC50 hV2/hV1a [1]: 10.7
IC50 [2]: 1250 nM

Cc1cc(CC(=O)Nc2ncccc2-n2cnc(Cn3nc(-c4ccc(Cl)cc4)n(C[C@H](O)C(F)(F)F)c3=O)n2)on1 [Example 135]
IC50 [1]: 66.5 nM
ratio IC50 hV2/hV1a [1]: 14.0
IC50 [2]: 930 nM

O=C(CC1CCC1)Nc1ncccc1-n1cnc(Cn2nc(-c3ccc(Cl)cc3)n(C[C@H](O)C(F)(F)F)c2=O)n1 [Example 136]
IC50 [1]: 23.5 nM
ratio IC50 hV2/hV1a [1]: 14.5
IC50 [2]: 340 nM

COC(C)(C)C(=O)Nc1ncccc1-n1cnc(Cn2nc(-c3ccc(Cl)cc3)n(C[C@H](O)C(F)(F)F)c2=O)n1 [Example 137]
IC50 [1]: 146 nM
ratio IC50 hV2/hV1a [1]: 9.2
IC50 [2]: 1350 nM

Cc1nonc1CC(=O)Nc1ncccc1-n1cnc(Cn2nc(-c3ccc(Cl)cc3)n(C[C@H](O)C(F)(F)F)c2=O)n1 [Example 138]
IC50 [1]: 38.5 nM
ratio IC50 hV2/hV1a [1]: 61.0
IC50 [2]: 2350 nM

CCc1cc(C(=O)Nc2ncccc2-n2cnc(Cn3nc(-c4ccc(Cl)cc4)n(C[C@H](O)C(F)(F)F)c3=O)n2)no1 [Example 139]
IC50 [1]: 20.5 nM
ratio IC50 hV2/hV1a [1]: 22.7
IC50 [2]: 465 nM

CCc1cc(C(=O)Nc2ncccc2-n2cnc(Cn3nc(-c4ccc(Cl)cc4)n(C[C@H](O)C(F)(F)F)c3=O)n2)on1 [Example 140]
IC50 [1]: 33.5 nM
ratio IC50 hV2/hV1a [1]: 30.0
IC50 [2]: 1010 nM

O=C(CC1CCCO1)Nc1ncccc1-n1cnc(Cn2nc(-c3ccc(Cl)cc3)n(C[C@H](O)C(F)(F)F)c2=O)n1 (stereo partly drawn) [Example 141]
IC50 [1]: 32 nM
ratio IC50 hV2/hV1a [1]: 33.3
IC50 [2]: 1060 nM

CC1=NOC(C)(C(=O)Nc2ncccc2-n2cnc(Cn3nc(-c4ccc(Cl)cc4)n(C[C@H](O)C(F)(F)F)c3=O)n2)C1 (stereo partly drawn) [Example 142]
IC50 [1]: 100 nM
ratio IC50 hV2/hV1a [1]: 24.0
IC50 [2]: 2400 nM

O=C(Nc1ncccc1-n1cnc(Cn2nc(-c3ccc(Cl)cc3)n(C[C@H](O)C(F)(F)F)c2=O)n1)c1ccncn1 [Example 143]
IC50 [1]: 15 nM
ratio IC50 hV2/hV1a [1]: 74.7
IC50 [2]: 1120 nM

C=CC(C)C(=O)Nc1ncccc1-n1cnc(Cn2nc(-c3ccc(Cl)cc3)n(C[C@H](O)C(F)(F)F)c2=O)n1 (stereo partly drawn) [Example 144]
IC50 [1]: 185 nM
ratio IC50 hV2/hV1a [1]: 10.3
IC50 [2]: 1900 nM

CC(C)(O)C(=O)Nc1ncccc1-n1cnc(Cn2nc(-c3ccc(Cl)cc3)n(C[C@H](O)C(F)(F)F)c2=O)n1 [Example 145]
IC50 [1]: 125 nM
ratio IC50 hV2/hV1a [1]: 8.1
IC50 [2]: 1010 nM

CCCC(=O)Nc1ncccc1-n1cnc(Cn2nc(-c3ccc(Cl)cc3)n(C[C@H](O)C(F)(F)F)c2=O)n1 [Example 146]
IC50 [1]: 56 nM
ratio IC50 hV2/hV1a [1]: 9.9
IC50 [2]: 555 nM

CCC(=O)Nc1ncccc1-n1cnc(Cn2nc(-c3ccc(Cl)cc3)n(C[C@H](O)C(F)(F)F)c2=O)n1 [Example 147]
IC50 [1]: 305 nM
ratio IC50 hV2/hV1a [1]: 3.1
IC50 [2]: 940 nM

CC(C)CC(=O)Nc1ncccc1-n1cnc(Cn2nc(-c3ccc(Cl)cc3)n(C[C@H](O)C(F)(F)F)c2=O)n1 [Example 148]
IC50 [1]: 19 nM
ratio IC50 hV2/hV1a [1]: 13.4
IC50 [2]: 255 nM

CSCC(=O)Nc1ncccc1-n1cnc(Cn2nc(-c3ccc(Cl)cc3)n(C[C@H](O)C(F)(F)F)c2=O)n1 [Example 149]
IC50 [1]: 12.4 nM
ratio IC50 hV2/hV1a [1]: 153.2
IC50 [2]: 1900 nM

O=C(CC1CCCC1)Nc1ncccc1-n1cnc(Cn2nc(-c3ccc(Cl)cc3)n(C[C@H](O)C(F)(F)F)c2=O)n1 [Example 150]
IC50 [1]: 54.5 nM
ratio IC50 hV2/hV1a [1]: 44.0
IC50 [2]: 2400 nM

CC(C)C(=O)Nc1ncccc1-n1cnc(Cn2nc(-c3ccc(Cl)cc3)n(C[C@H](O)C(F)(F)F)c2=O)n1 [Example 151]
IC50 [1]: 98 nM
ratio IC50 hV2/hV1a [1]: 6.8
IC50 [2]: 665 nM

C=CCC(=O)Nc1ncccc1-n1cnc(Cn2nc(-c3ccc(Cl)cc3)n(C[C@H](O)C(F)(F)F)c2=O)n1 [Example 152]
IC50 [1]: 65 nM
ratio IC50 hV2/hV1a [1]: 20.8
IC50 [2]: 1350 nM

N#Cc1cccc(C(=O)Nc2ncccc2-n2cnc(Cn3nc(-c4ccc(Cl)cc4)n(C[C@H](O)C(F)(F)F)c3=O)n2)c1 [Example 153]
IC50 [1]: 410 nM
ratio IC50 hV2/hV1a [1]: 42.2
IC50 [2]: 17300 nM

CC1(C(=O)Nc2ncccc2-n2cnc(Cn3nc(-c4ccc(Cl)cc4)n(C[C@H](O)C(F)(F)F)c3=O)n2)CC1 [Example 154]
IC50 [1]: 6.75 nM
ratio IC50 hV2/hV1a [1]: 325.9
IC50 [2]: 2200 nM

CC(C(=O)Nc1ncccc1-n1cnc(Cn2nc(-c3ccc(Cl)cc3)n(C[C@H](O)C(F)(F)F)c2=O)n1)n1cncn1 (stereo partly drawn) [Example 155]
IC50 [1]: 39 nM
ratio IC50 hV2/hV1a [1]: 50.0
IC50 [2]: 1950 nM

O=C(Nc1ncccc1-n1cnc(Cn2nc(-c3ccc(Cl)cc3)n(C[C@H](O)C(F)(F)F)c2=O)n1)C1CCCCCC1 [Example 156]
IC50 [1]: 66 nM
ratio IC50 hV2/hV1a [1]: 20.5
IC50 [2]: 1350 nM

O=C(Nc1ncccc1-n1cnc(Cn2nc(-c3ccc(Cl)cc3)n(C[C@H](O)C(F)(F)F)c2=O)n1)c1ccncc1 [Example 157]
IC50 [1]: 3.55 nM
ratio IC50 hV2/hV1a [1]: 859.2
IC50 [2]: 3050 nM

CC(C)(C)CC(=O)Nc1ncccc1-n1cnc(Cn2nc(-c3ccc(Cl)cc3)n(C[C@H](O)C(F)(F)F)c2=O)n1 [Example 158]
IC50 [1]: 10.6 nM
ratio IC50 hV2/hV1a [1]: 360.2
IC50 [2]: 3800 nM

O=C(Nc1ncccc1-n1cnc(Cn2nc(-c3ccc(Cl)cc3)n(C[C@H](O)C(F)(F)F)c2=O)n1)C1CCCCC1 [Example 159]
IC50 [1]: 52.5 nM
ratio IC50 hV2/hV1a [1]: 35.2
IC50 [2]: 1850 nM

Cc1cc(C(=O)Nc2ncccc2-n2cnc(Cn3nc(-c4ccc(Cl)cc4)n(C[C@H](O)C(F)(F)F)c3=O)n2)no1 [Example 161]
IC50 [1]: 26.5 nM
ratio IC50 hV2/hV1a [1]: 18.9
IC50 [2]: 500 nM

Cc1cccc(C(=O)Nc2ncccc2-n2cnc(Cn3nc(-c4ccc(Cl)cc4)n(C[C@H](O)C(F)(F)F)c3=O)n2)c1 [Example 162]
IC50 [1]: 300 nM
ratio IC50 hV2/hV1a [1]: 24.0
IC50 [2]: 7200 nM

O=C(Nc1ncccc1-n1cnc(Cn2nc(-c3ccc(Cl)cc3)n(C[C@H](O)C(F)(F)F)c2=O)n1)c1ccno1 [Example 163]
IC50 [1]: 28 nM
ratio IC50 hV2/hV1a [1]: 46.4
IC50 [2]: 1300 nM

Cc1cn(CC(=O)Nc2ncccc2-n2cnc(Cn3nc(-c4ccc(Cl)cc4)n(C[C@H](O)C(F)(F)F)c3=O)n2)nn1 [Example 164]
IC50 [1]: 660 nM
ratio IC50 hV2/hV1a [1]: 2.0
IC50 [2]: 1300 nM

O=C(CC1CCCCO1)Nc1ncccc1-n1cnc(Cn2nc(-c3ccc(Cl)cc3)n(C[C@H](O)C(F)(F)F)c2=O)n1 (stereo partly drawn) [Example 165]
IC50 [1]: 66 nM
ratio IC50 hV2/hV1a [1]: 9.6
IC50 [2]: 635 nM

O=C(Nc1ncccc1-n1cnc(Cn2nc(-c3ccc(Cl)cc3)n(C[C@H](O)C(F)(F)F)c2=O)n1)C1CCCCO1 (stereo partly drawn) [Example 166]
IC50 [1]: 39 nM
ratio IC50 hV2/hV1a [1]: 51.3
IC50 [2]: 2000 nM

O=C(Nc1ncccc1-n1cnc(Cn2nc(-c3ccc(Cl)cc3)n(C[C@H](O)C(F)(F)F)c2=O)n1)OCC(F)(F)F [Example 167, 2,2,2-Trifluoroethyl {3-[3-({3-(4-chlorophenyl)-5-oxo-4-[(2S)-3,3,3-trifluoro-2-hydroxypropyl]-4,5-dihydro-1H-1,2,4-triazol-1-yl}methyl)-1H-1,2,4-triazol-1-yl]pyridin-2-yl}carbamate]
IC50 [1]: 19.3 nM
ratio IC50 hV2/hV1a [1]: 64.7
IC50 [2]: 1250 nM
